Laboratory results reported in patent US20240076293A1, “Compositions and Methods for Inhibiting Fibrosis, Inflammation and Cancer” (Georgia Tech Research Corporation, priority 2020, published 2024).
Where two headings read alike, the source gives them in different places.

Key:
Format in all cases: cell-based
[1] = Anti-proliferation IC50, MRC-5; conditions: human, MRC-5 cells; Table 1, compounds of formula I; NI = no inhibition up to 500 μM
A549 = experiment: Anti-proliferation IC50, A549; conditions: Homo sapiens
Hep-G2 = experiment: Anti-proliferation IC50, Hep-G2; conditions: Homo sapiens, HepG2
VERO = experiment: Anti-proliferation IC50, VERO; conditions: Chlorocebus sabaeus
[2] = Table 1, compounds of formula I, NI = no inhibition up to 500 μM, read-out: A549 (IC50)
[3] = Table 1, compounds of formula I, NI = no inhibition up to 500 μM, read-out: Hep-G2 (IC50)
[4] = Table 1, compounds of formula I, NI = no inhibition up to 500 μM, read-out: VERO (IC50)

Row | SMILES | IC50 (A549; [2]) | IC50 (Hep-G2; [3]) | IC50 (A549; Table 2, compounds of formula II, read-out: Anti-proliferation IC50 A549) | IC50 (Hep-G2; Table 2, compounds of formula II, read-out: Anti-proliferation IC50 Hep-G2) | IC50 [1] | IC50 (VERO; [4]) | IC50 (VERO; Table 2, compounds of formula II, read-out: Anti-proliferation IC50 VERO)
1 | CC[C@H]1OC(=O)[C@H](C)[C@@H](O[C@H]2C[C@@](C)(OC)[C@@H](O)[C@H](C)O2)[C@H](C)[C@@H](O[C@@H]2O[C@H](C)C[C@H](N(C)C)[C@H]2O)[C@](C)(O)C[C@@H](C)CN(C)[C@H](C)[C@@H](O)[C@]1(C)O [Azithromycin (AZM), Azithromycin, reference compound] | 204 ± 4.5 µM | 85.3 ± 0.9 µM | – | – | 127 ± 1 µM | 222 ± 18.1 µM | –
2 | CCC1OC(=O)[C@H](C)[C@H](OC2C[C@@](C)(OC)[C@@H](O)[C@H](C)O2)[C@H](C)[C@@H](OC2O[C@H](C)C[C@H](N(C)Cc3cn(Cc4ccc(-n5cc(C)ccc5=O)cc4)nn3)[C@H]2O)[C@@](C)(OC)C[C@@H](C)C(=O)[C@H](C)[C@@H](O)[C@]1(C)O (stereo partly drawn) [Compound 10b] | 118 ± 28.4 µM | 116 ± 16 µM | – | – | 102.6 ± 0.8 µM | 153 ± 19 µM | –
3 | Cc1ccc(=O)n(-c2ccccc2)c1 [Pirfenidone (Pir), Pirfenidone, reference compound] | 5410 ± 241 µM | 10900 µM | – | – | 5300 ± 178 µM | 10788 ± 0.6 µM | –
4 | CCC1OC(=O)[C@H](C)[C@H](OC2C[C@@](C)(OC)[C@@H](O)[C@H](C)O2)[C@H](C)[C@@H](OC2O[C@H](C)C[C@H](N(C)Cc3ccc(-c4cn(Cc5ccc(-n6cc(C)ccc6=O)cc5)nn4)cc3)[C@H]2O)[C@@](C)(OC)C[C@@H](C)C(=O)[C@H](C)[C@@H](O)[C@]1(C)O (stereo partly drawn) [Compound 10c] | 11.1 ± 2.7 µM | 20.3 ± 1 µM | – | – | 12.3 ± 1.8 µM | 5.1 ± 0.2 µM | –
5 | CC[C@@H]1OC(=O)[C@@H](C)[C@H](O[C@H]2C[C@@](C)(OC)[C@@H](O)[C@H](C)O2)[C@@H](C)[C@H](O[C@H]2O[C@@H](C)C[C@@H](N(C)C(=O)/C=C/C(=O)OC)[C@@H]2O)C(C)(O)C[C@H](C)CN(C)[C@@H](C)[C@H](O)[C@@]1(C)O (stereo partly drawn) | – | – | 214 µM | 126 µM | – | – | 212 µM

The next lines start with results.

Row | IC50 (A549; [2]) | IC50 (Hep-G2; [3]) | IC50 (A549; Table 2, compounds of formula II, read-out: Anti-proliferation IC50 A549) | IC50 (Hep-G2; Table 2, compounds of formula II, read-out: Anti-proliferation IC50 Hep-G2) | SMILES | IC50 [1] | IC50 (VERO; [4]) | IC50 (VERO; Table 2, compounds of formula II, read-out: Anti-proliferation IC50 VERO)
6 | 23.8 ± 2.1 µM | 23.7 ± 2 µM | – | – | CCC1OC(=O)[C@H](C)[C@H](OC2C[C@@](C)(OC)[C@@H](O)[C@H](C)O2)[C@H](C)[C@@H](OC2O[C@H](C)C[C@H](N(C)CCCCCC#Cc3ccc(-n4cc(C)ccc4=O)cc3)[C@H]2O)[C@@](C)(OC)C[C@@H](C)C(=O)[C@H](C)[C@@H](O)[C@]1(C)O (stereo partly drawn) [Compound 19e] | 24.2 ± 0.6 µM | 13.2 ± 0.7 µM | –
7 | 116 ± 4.1 µM | 122 ± 3.7 µM | – | – | CCC1OC(=O)[C@H](C)[C@H](OC2C[C@@](C)(OC)[C@@H](O)[C@H](C)O2)[C@H](C)[C@@H](OC2O[C@H](C)C[C@H](N(C)Cc3cn(CCc4ccc(-n5cc(C)ccc5=O)cc4)nn3)[C@H]2O)[C@@](C)(OC)C[C@@H](C)C(=O)[C@H](C)[C@@H](O)[C@]1(C)O (stereo partly drawn) [Compound 12b] | 84 ± 4.5 µM | 104 ± 20.3 µM | –
8 | 16.3 ± 1.6 µM | 30.9 ± 1.4 µM | – | – | CCC1OC(=O)[C@H](C)[C@H](OC2C[C@@](C)(OC)[C@@H](O)[C@H](C)O2)[C@H](C)[C@@H](OC2O[C@H](C)C[C@H](N(C)CCCCc3ccc(-n4cc(C)ccc4=O)cc3)[C@H]2O)[C@@](C)(OC)C[C@@H](C)C(=O)[C@H](C)[C@@H](O)[C@]1(C)O (stereo partly drawn) [Compound 14a] | 15.7 ± 2.3 µM | 19 ± 3.7 µM | –
9 | 59.9 ± 0.8 µM | 60.9 ± 9 µM | – | – | CCC1OC(=O)[C@H](C)[C@H](OC2C[C@@](C)(OC)[C@@H](O)[C@H](C)O2)[C@H](C)[C@@H](OC2O[C@H](C)C[C@H](N(C)CCC#Cc3ccc(-n4cc(C)ccc4=O)cc3)[C@H]2O)[C@@](C)(OC)C[C@@H](C)C(=O)[C@H](C)[C@@H](O)[C@]1(C)O (stereo partly drawn) [Compound 19b] | > 500 µM | 130 ± 21.2 µM | –
10 | > 500 µM | > 500 µM | – | – | CCC1OC(=O)[C@H](C)[C@H](OC2C[C@@](C)(OC)[C@@H](O)[C@H](C)O2)[C@H](C)[C@@H](OC2O[C@H](C)C[C@H](N(C)CCc3ccc(-n4cc(C)ccc4=O)cc3)[C@H]2O)[C@@](C)(OC)C[C@@H](C)C(=O)[C@H](C)[C@@H](O)[C@]1(C)O (stereo partly drawn) [Compound 12a] | 119 µM | > 500 µM | –
